Tests used:
[1] = cited from earlier work
Human pancreatic lipase = target: T1, Human pancreatic lipase (Homo sapiens, UniProt P16233); assay: Pancreatic Lipase (PL) inhibitory test (Lipase-PS kit); format: biochemical; conditions: FIG. 3 / FIG. 14
T1 construct: purchased Sigma-Aldrich
T1 sequence (P16233 17-465): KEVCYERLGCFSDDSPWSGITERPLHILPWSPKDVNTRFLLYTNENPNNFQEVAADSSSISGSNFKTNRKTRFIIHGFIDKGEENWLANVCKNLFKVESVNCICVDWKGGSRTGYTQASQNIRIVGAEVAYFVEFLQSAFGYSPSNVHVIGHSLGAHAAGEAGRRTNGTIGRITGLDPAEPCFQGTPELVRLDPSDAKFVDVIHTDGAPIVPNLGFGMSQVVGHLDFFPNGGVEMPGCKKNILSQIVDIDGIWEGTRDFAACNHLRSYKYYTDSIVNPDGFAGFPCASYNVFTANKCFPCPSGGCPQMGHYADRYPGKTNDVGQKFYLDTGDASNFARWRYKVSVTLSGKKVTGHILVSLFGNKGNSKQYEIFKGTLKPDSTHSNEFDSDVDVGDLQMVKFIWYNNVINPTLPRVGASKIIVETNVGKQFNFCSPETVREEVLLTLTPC
T1 sequence (P04118 23-112 partner): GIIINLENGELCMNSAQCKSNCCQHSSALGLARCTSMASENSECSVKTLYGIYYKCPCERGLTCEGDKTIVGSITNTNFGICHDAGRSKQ
Method: A Pancreatic Lipase (PL) inhibitory test was performed with a commercial kit (Lipase-PSTM Trinity Biotech USA, Jamestown, N.Y.). Lipase-PSTM reagents were obtained from Trinity Biotech USA (Lipase-PSTM was manufactured by Sigma Diagnostics (Procedure No. 805, Sigma-Aldrich, St. Louis, Mo. until 2003)). […] Louis, Mo.). […] Activator reagent (300 μL) was added and mixed by gentle inversion and the samples were incubated again for 3 min. at 37° C. The recorded rate of increase in absorbance at 550 nm due to the formation of quinone diimine dye was used to determine the pancreatic lipase activity in the samples prepared, as detailed in the literature. Lott, J. A., et al., Lipase Isoforms and Amylase Isoenzymes: Assays and Application in the Diagnosis of Acute Pancreatitis, Clinical Chemistry, 37, 361 (1991); Moreno […]., Fried […]., 2003, Inhibitory effects of grape seed extract on lipases, Nutrition 19, 876-879 (hereinafter “Moreno et al. 2003”).

SMILES | diarrhea (in words) ([1]; literature) | inhibition of dietary fat absorption ([1]; recommended therapeutic dose of 120 mg three times a day) | inhibitory effect on in vitro pancreatic lipase (in words) (Human pancreatic lipase) | inhibitory effect on in vitro pancreatic lipase (in words) (Human pancreatic lipase; listed as Esculetin)
CCCCCCCCCCC[C@@H](C[C@@H]1OC(=O)[C@H]1CCCCCC)OC(=O)[C@H](CC(C)C)NC=O [Orlistat] | common side effect | about 30% | – | –
O=c1ccc2cc(O)c(O)cc2o1 [esculetin, 6,7-dihydroxycoumarin] | – | – | particularly strong inhibitory effect | strong inhibitory effect on PL in a dose dependent manner
